system: mast cells; test: Anti-allergic effect of active ingredients derived from Taxus cuspidata extract (degranulation, PGE2, TNF-α, IL-4 overall); type: cell-based, rat; conditions: overall statement on FIGS. 13 to 16; compounds at 20 μM
Experimental: Mast cells were cultured in the same manner as in Example 2 above, and then treated with the nine compounds isolated in Example 11 above at a concentration of 20 μM, respectively.
Mast cells were cultured in the same manner as in Example 3 above, and then treated with the nine compounds isolated in Example 11 above at a concentration of 20 μM, respectively.
• treated with the 9 compounds isolated in Example 11 at a concentration of 20 μM, respectively.
Mast cells were cultured in the same manner as in Example 5 above, and then treated with the nine compounds isolated in Example 11 above at a concentration of 20 μM, respectively.

Row | SMILES | anti-allergy effects
1 | OCCCc1ccc(O)cc1 [3-(4-Hydroxyphenyl)-1-propanol] | excellent
2 | O=Cc1ccc(O)cc1 [4-hydroxyl benzandehyde] | excellent
3 | COc1cc(O)cc(OC)c1 [Taxicatigenin] | excellent

From patent US20250000924A1, “Composition for the prevention, improvement or treatment of allergic disease comprising an extract of Taxus cuspidata as an active ingredient” (KOREA INSTITUTE OF SCIENCE AND TECHNOLOGY, priority 2023, published 2025)
